Experimental data as given in ChEMBL document CHEMBL5042544, “Discovery of a Potent and Selective ATAD2 Bromodomain Inhibitor with Antiproliferative Activity in Breast Cancer Models” (J Med Chem, 2022).
The source made the active and inactive calls. No cut-off for these calls is given here.

Columns and labels:
SK-BR-3 [1] = assay: Antiproliferative activity against human SK-BR-3 cells expressing ATAD2 assessed as inhibition of colony formation at 0.01 to 10 uM measured after 14 to 21 days by AlamarBlue staining based colony formation assay; format: functional, cell-based; details: dose 0.01-10 µM, time 14-21 day
Protein polybromo-1 [2] = biological target: T1, Protein polybromo-1 (Homo sapiens, UniProt Q86U86); assay: Binding affinity to human PBRM1 bromodomain 5 assessed as dissociation constant by BROMOscan method
T1 sequence (Q86U86 whole entry): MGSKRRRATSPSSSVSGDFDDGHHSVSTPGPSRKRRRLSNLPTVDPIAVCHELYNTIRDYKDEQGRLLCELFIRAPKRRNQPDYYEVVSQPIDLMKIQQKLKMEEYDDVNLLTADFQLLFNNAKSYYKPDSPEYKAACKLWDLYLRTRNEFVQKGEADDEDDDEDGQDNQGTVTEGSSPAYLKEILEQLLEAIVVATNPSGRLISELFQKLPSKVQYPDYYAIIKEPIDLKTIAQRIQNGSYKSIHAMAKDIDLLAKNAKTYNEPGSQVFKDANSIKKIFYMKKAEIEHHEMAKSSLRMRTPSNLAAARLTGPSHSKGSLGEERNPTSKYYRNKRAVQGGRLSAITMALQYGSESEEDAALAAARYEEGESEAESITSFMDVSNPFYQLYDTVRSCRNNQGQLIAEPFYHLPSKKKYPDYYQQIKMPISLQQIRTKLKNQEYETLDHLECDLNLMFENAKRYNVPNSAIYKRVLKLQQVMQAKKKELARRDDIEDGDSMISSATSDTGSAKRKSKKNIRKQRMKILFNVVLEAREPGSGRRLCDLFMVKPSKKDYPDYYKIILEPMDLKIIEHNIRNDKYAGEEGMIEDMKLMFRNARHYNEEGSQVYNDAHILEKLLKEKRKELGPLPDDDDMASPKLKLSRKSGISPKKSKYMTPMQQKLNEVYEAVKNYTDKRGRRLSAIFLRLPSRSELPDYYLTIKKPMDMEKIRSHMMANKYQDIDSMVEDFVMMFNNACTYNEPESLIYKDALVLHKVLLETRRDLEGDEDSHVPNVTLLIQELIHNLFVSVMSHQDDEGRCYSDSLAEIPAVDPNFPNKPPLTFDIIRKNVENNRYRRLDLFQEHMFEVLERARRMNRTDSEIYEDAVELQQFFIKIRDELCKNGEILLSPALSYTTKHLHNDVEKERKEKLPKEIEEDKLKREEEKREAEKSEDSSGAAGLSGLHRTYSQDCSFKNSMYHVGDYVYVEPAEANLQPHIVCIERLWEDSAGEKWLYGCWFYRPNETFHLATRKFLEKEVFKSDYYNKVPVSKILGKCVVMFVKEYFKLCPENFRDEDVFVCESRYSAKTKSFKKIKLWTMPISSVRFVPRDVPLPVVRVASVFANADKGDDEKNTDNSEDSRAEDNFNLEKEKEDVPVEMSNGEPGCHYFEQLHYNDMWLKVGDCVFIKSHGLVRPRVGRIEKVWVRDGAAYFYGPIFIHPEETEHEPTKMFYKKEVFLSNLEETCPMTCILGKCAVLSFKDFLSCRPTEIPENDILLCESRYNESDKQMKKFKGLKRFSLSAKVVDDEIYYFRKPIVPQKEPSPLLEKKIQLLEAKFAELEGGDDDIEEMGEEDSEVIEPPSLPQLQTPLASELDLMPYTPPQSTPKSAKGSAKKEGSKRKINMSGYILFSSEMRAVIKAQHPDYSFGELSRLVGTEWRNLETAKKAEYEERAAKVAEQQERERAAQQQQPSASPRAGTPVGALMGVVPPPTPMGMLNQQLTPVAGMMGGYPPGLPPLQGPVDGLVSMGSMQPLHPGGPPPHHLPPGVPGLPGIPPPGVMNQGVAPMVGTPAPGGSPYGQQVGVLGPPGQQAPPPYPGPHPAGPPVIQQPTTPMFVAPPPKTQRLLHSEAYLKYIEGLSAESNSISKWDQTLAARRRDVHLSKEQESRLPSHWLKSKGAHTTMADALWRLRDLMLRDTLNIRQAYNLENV

[3] = biological target: T2, Bromodomain-containing protein 2 (Homo sapiens, UniProt P25440); assay: Binding affinity to human BRD2 bromodomain 1 assessed as dissociation constant by BROMOscan method
T2 sequence (P25440 whole entry): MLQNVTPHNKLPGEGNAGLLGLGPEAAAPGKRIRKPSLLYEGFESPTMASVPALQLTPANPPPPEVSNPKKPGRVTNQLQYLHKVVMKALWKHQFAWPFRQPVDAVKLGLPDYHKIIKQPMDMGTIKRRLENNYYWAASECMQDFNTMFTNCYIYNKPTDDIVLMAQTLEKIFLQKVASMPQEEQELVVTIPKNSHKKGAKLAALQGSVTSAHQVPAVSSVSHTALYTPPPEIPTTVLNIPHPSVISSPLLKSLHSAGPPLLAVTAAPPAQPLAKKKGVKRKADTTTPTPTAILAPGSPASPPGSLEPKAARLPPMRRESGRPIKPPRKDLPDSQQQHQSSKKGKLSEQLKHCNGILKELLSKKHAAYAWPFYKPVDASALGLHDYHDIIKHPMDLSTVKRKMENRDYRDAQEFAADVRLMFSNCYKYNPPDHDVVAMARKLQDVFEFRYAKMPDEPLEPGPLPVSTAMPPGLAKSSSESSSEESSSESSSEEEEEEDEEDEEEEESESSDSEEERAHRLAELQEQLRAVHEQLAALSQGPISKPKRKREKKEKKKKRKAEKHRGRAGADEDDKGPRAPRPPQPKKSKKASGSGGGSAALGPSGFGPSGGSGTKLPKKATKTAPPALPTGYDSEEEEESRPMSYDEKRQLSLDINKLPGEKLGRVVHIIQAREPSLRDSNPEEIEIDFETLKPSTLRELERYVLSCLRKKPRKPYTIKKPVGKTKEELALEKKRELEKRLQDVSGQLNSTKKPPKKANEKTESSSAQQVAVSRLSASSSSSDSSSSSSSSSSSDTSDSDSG

SK-BR-3 [4] = assay: Antiproliferative activity against human SK-BR-3 cells expressing BRD2 assessed as inhibition of colony formation at 0.01 to 10 uM measured after 14 to 21 days by alamarBlue based colony formation assay; format: functional, cell-based; details: dose 0.01-10 µM, time 14-21 day
[5] = Binding affinity to human ATAD2A assessed as dissociation constant by BROMOscan method
[6] = biological target: Bromodomain-containing protein 4 (Homo sapiens, UniProt O60885); assay: Displacement of Halo-tagged Histone H3.3 from Nanoluc-BRD4 BD1/BD2 (44 to 460 residues) (unknown origin) transfected in human HCT116 cells incubated for 18 hrs by NanoBRET assay; format: cell-based, HCT-116
[7] = biological target: Transcription intermediary factor 1-alpha (Homo sapiens) (UniProt O15164); assay: Binding affinity to human TRIM24 bromodomain assessed as residual activity at 300 nM by BROMOscan method relative to control
[8] = biological target: ATPase family AAA domain-containing protein 2B (Homo sapiens) (UniProt Q9ULI0); assay: Binding affinity to human ATAD2B bromodomain assessed as residual activity at 300 nM by BROMOscan method relative to control
Peregrin (Homo sapiens) = Peregrin (Homo sapiens) (UniProt P55201); assay: Binding affinity to human […] bromodomain assessed as residual activity at 300 nM by BROMOscan method relative to control
[9] = biological target: SWI/SNF-related matrix-associated actin-dependent regulator of chromatin subfamily A member 2 (Homo sapiens, UniProt P51531); assay: Binding affinity to human SMARCA2 bromodomain assessed as residual activity at 300 nM by BROMOscan method relative to control
[10] = biological target: Bromodomain adjacent to zinc finger domain protein 2B (Homo sapiens) (UniProt Q9UIF8); assay: Binding affinity to human BAZ2B bromodomain assessed as residual activity at 300 nM by BROMOscan method relative to control
[11] = biological target: T3, ATPase family AAA domain-containing protein 2 (Homo sapiens, UniProt Q6PL18); assay: Displacement of Halo-tagged Histone H3.3 from Nanoluc-ATAD2 BD (962 to 1119 residues) (unknown origin) transfected in human HCT116 cells incubated for 18 hrs in presence of efflux inhibitor verapamil by NanoBRET assay; format: cell-based, HCT-116
T3 sequence (Q6PL18 whole entry): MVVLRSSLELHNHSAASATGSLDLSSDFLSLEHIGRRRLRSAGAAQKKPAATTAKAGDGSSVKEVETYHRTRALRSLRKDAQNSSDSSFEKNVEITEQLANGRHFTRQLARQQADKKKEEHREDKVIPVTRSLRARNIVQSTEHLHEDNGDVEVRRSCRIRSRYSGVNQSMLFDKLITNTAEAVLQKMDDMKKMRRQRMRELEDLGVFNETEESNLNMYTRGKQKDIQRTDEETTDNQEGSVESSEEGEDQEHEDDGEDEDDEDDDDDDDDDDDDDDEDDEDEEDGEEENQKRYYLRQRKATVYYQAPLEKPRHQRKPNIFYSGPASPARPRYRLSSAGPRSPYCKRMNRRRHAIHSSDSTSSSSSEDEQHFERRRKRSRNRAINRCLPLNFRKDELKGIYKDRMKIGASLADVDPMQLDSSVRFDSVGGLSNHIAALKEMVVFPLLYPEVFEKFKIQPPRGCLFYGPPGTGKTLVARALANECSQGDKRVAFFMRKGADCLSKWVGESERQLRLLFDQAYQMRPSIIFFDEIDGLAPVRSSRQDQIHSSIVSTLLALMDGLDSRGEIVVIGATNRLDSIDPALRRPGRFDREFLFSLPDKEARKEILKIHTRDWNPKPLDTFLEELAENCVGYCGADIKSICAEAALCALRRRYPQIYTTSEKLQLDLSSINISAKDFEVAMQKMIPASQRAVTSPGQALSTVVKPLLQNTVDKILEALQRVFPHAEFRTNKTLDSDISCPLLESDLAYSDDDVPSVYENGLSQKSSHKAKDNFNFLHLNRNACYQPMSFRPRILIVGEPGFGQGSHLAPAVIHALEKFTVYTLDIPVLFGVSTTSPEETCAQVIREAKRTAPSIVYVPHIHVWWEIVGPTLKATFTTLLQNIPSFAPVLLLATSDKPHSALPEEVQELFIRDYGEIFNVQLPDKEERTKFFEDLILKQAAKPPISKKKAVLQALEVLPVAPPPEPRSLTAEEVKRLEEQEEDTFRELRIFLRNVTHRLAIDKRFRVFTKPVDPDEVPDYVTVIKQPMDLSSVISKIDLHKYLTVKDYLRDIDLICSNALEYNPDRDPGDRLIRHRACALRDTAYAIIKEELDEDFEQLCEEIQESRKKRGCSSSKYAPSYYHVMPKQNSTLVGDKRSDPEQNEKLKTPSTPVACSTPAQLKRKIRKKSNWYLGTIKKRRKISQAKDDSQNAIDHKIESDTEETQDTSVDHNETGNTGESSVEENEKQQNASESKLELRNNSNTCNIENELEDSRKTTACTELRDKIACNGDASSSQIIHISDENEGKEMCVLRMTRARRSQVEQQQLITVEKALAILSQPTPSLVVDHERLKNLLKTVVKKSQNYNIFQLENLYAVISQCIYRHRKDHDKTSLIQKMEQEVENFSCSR

[12] = biological target: Transcription initiation factor TFIID subunit 1 (Homo sapiens, UniProt P21675); assay: Binding affinity to human TAF1 bromodomain 2 assessed as residual activity at 300 nM by BROMOscan method relative to control
Sequence of Transcription initiation factor TFIID subunit 1 (P21675 whole entry): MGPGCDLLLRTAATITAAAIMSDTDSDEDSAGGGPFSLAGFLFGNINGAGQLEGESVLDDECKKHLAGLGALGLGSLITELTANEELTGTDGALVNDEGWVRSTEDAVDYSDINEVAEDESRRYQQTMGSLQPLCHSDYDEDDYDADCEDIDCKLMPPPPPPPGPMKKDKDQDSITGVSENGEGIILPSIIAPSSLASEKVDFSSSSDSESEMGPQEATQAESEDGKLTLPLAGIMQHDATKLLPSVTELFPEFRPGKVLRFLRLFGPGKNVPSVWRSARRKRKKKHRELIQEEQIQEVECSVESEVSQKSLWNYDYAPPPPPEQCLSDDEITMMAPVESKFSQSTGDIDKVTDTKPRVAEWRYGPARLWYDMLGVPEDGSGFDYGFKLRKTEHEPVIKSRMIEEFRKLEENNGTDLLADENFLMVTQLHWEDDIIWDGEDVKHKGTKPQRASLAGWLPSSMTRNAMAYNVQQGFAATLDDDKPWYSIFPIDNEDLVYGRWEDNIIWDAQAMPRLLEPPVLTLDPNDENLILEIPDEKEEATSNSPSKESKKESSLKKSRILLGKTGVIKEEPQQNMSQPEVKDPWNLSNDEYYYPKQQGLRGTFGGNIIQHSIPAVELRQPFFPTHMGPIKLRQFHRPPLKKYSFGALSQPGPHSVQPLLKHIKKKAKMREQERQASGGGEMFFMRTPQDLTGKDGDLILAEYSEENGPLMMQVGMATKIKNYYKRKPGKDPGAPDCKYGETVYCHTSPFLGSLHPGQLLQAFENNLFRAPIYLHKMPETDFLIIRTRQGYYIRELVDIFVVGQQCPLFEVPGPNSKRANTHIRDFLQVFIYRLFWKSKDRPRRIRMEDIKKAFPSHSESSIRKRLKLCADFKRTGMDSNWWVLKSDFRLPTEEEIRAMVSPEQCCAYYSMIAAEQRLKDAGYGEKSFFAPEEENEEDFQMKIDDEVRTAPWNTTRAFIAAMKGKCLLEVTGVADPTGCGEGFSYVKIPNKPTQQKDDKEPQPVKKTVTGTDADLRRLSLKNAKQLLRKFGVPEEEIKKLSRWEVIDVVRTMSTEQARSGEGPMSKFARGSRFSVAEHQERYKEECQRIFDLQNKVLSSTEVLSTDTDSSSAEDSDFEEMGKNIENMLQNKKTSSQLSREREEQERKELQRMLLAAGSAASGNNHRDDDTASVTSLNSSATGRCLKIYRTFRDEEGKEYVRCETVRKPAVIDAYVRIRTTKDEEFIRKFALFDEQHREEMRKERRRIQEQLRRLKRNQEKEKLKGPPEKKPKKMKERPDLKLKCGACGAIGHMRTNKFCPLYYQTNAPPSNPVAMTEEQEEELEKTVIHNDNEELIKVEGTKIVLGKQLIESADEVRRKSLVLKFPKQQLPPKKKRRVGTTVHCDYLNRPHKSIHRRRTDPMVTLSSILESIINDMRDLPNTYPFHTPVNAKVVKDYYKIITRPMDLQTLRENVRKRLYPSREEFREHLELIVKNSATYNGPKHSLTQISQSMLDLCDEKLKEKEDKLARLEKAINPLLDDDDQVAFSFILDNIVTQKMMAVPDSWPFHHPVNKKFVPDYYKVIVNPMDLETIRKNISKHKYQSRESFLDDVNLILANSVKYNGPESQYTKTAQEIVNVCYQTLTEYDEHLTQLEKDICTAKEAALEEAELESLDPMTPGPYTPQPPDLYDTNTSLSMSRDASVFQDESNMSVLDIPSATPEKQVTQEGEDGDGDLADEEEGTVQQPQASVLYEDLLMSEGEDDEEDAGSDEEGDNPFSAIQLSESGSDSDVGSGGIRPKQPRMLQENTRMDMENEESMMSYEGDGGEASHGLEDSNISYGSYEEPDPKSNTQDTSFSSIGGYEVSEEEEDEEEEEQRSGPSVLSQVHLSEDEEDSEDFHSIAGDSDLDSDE

[13] = biological target: Histone acetyltransferase p300 (Homo sapiens, UniProt Q09472); assay: Binding affinity to human EP300 bromodomain assessed as dissociation constant by BROMOscan method
[14] = biological target: Bromodomain and WD repeat-containing protein 1 (Homo sapiens, UniProt Q9NSI6); assay: Binding affinity to human WDR9 bromodomain 2 assessed as dissociation constant by BROMOscan method
Protein polybromo-1 [15] = biological target: T1, Protein polybromo-1; assay: Binding affinity to human PBRM1 bromodomain 5 assessed as residual activity at 300 nM by BROMOscan method relative to control
[16] = biological target: Histone acetyltransferase KAT2B (Homo sapiens, UniProt Q92831); assay: Binding affinity to human PCAF bromodomain assessed as dissociation constant by BROMOscan method
[17] = biological target: T2, Bromodomain-containing protein 2; assay: Binding affinity to human BRD2 bromodomain 2 assessed as dissociation constant by BROMOscan method

## Cc1nnc2c(NC3CCN(CC(C)(C)F)CC3)cc(C(=O)N3[C@@H]4c5ccccc5C[C@H]3C(=O)N[C@@H]4C(C)C)nn12
SK-BR-3 [1]
  Activity: Dose-Dependent Effect
Protein polybromo-1 [2]
  Kd: > 316 nM
[3]
  Kd: 126 nM
SK-BR-3 [4]
  Activity: inactive
[5]
  pKd: 8.9
[6]
  IC50: 10000 nM
[7]
  Activity: 86%
[8]
  Activity: 0%
Peregrin (Homo sapiens)
  Activity: 79%
[9]
  Activity: 36%
[10]
  Activity: 75%
[11]
  IC50: 50.1 nM
[12]
  Activity: 44%
[13]
  Kd: > 3160 nM
[14]
  Kd: > 316 nM
Protein polybromo-1 [15]
  Activity: 52%
[16]
  Kd: > 316 nM
[17]
  Kd: 200 nM
